# Tested on: xanthurenic acid receptor
# Assay: Screening: displacement of [3H]-XA binding to synaptic membranes at a fixed concentration
# Details: not given
# Procedure: If this concentration produces the same or greater displacement than the same concentration of non-radiolabelled XA, then an IC50 is determined. […] The incubation time is 25 min. […] The filters are placed in scintillation vials to which 5 ml of Rotiszint® (Roth) are added and the vials are counted in a Beckman LS6000sc liquid scintillation counter. Specific binding is given as the difference between total binding and nonspecific binding. The percentage inhibition of binding that the synthetic compounds produce is calculated for each compound in relation to its positive control.
row,"effect on xanthurenic acid binding, in words",SMILES
1,increase the binding of xanthurenic acid,"Cl.NCCCc1cc(O)c2nc(C(=O)O)cc(O)c2c1 [Compound 22c, 4,8-dihydroxy-6-(3-amino-propyl)-quinoline-2-carboxylic acid hydrochloride]"
2,increase the binding of xanthurenic acid,"O=C(O)c1cc(=O)c2ccccc2[nH]1 [Kynurenic acid, reference compound]"

# Same assay, conditions: compound at 10 μM; 200 nM [3H]-XA, synaptic membranes
row,real increase in total binding (potentiation),SMILES
1,(+100% real increase,"Cl.NCCCc1cc(O)c2nc(C(=O)O)cc(O)c2c1 [Compound 22c, 4,8-dihydroxy-6-(3-amino-propyl)-quinoline-2-carboxylic acid hydrochloride]"
2,(+70% real increase,"O=C(O)c1cc(=O)c2ccccc2[nH]1 [Kynurenic acid, reference compound]"

# Same assay, conditions: compound at 10 μM; 200 nM [3H]-XA, synaptic membranes; xanthurenic acid set arbitrarily to 100%
row,% inhibition of XA binding at 10 μM*,SMILES
1,92%,"Cl.O=C(O)c1cc(O)c2cccc(N3CCCCC3)c2n1 [Compound 102b, 4-hydroxy-8-(piperidin-1-yl)-quinoline-2-carboxylic acid hydrochloride]"
2,94%,"O=C(O)c1cc(O)c2c(C(F)(F)F)ccc(O)c2n1 [Compound 98c, 4,8-dihydroxy-5-trifluoromethyl-quinoline-2-carboxylic acid]"
3,69%,"O=C(O)CC1Nc2c(O)cccc2NC1=O (stereo not shown) [Compound 60c, [8-(hydroxy)-3-oxo-3,4-dihydroquinoxaline-2(1H)-yl]acetic acid]"
4,137%,"Cl.O=C(O)c1cc(N2CCCCC2)c2cccc(O)c2n1 [Compound 100c, 8-hydroxy-4-(piperidin-1-yl)-quinoline-2-carboxylic acid hydrochloride]"
5,37%,"Cl.Nc1cccc2c(CCc3ccccc3)cc(C(=O)O)nc12 [Compound 94c, 8-amino-4-(2-phenyleth-1-yl)-quinoline-2-carboxylic acid hydrochloride]"
6,48.5%,"O=C(Nc1cccc2c(O)cc(C(=O)O)nc12)c1ccccc1 [Compound 28c, 8-benzoylamino-4-hydroxy-quinoline-2-carboxylic acid]"
7,26%,"CCc1cc(C#N)c2nc(C(=O)O)cc(O)c2c1 [Compound 69d, 8-cyano-6-ethyl-4-hydroxy-quinoline-2-carboxylic acid]"
8,66%,"Cl.O=C(O)c1cc(O)c2cccc(N3CCN(Cc4ccccc4)CC3)c2n1 [Compound 105b, 8-(4-benzyl-piperazin-1-yl)-4-hydroxy-quinoline-2-carboxylic acid hydrochloride]"
9,6%,"Cl.Nc1ccc(N2CCCCC2)c2c(O)cc(C(=O)O)nc12 [Compound 77c, 5-(piperidin-1-yl)-8-amino-4-hydroxy-quinoline-2-carboxylic acid hydrochloride]"
10,69%,"N#Cc1cccc2c(O)c(Br)c(C(=O)O)nc12 [Compound 66b, 3-bromo-8-cyano-4-hydroxy-quinoline-2-carboxylic acid]"
11,Potentiation,"Cl.NCCCc1cc(O)c2nc(C(=O)O)cc(O)c2c1 [Compound 22c, 4,8-dihydroxy-6-(3-amino-propyl)-quinoline-2-carboxylic acid hydrochloride]"
12,97%,"O=C(O)c1nc2c(O)cccc2[nH]c1=O [Compound 59c, 8-hydroxy-3-oxo-3,4-dihydroquinoxaline-2-carboxylic acid]"
13,109%,"CN1CCN(c2cc(N)c3nc(C(=O)O)cc(O)c3c2)CC1.Cl [Compound 124b, 6-N-(N-methylpiperazinyl)-8-amino-4-hydroxy-quinoline-2-carboxylic acid hydrochloride]"
14,3%,"CNc1cccc2c(O)cc(C(=O)O)nc12.Cl [Compound 103b, 4-hydroxy-8-(methyl)amino-quinoline-2-carboxylic acid hydrochloride]"
15,100%,"N#CCCCCCc1cc(N)c2nc(C(=O)O)cc(O)c2c1 [Compound 123c, 6-(5′-cyanopentyl)-8-amino-4-hydroxy-quinoline-2-carboxylic acid]"
16,0%,"N#Cc1cccc2c(O)c(C#Cc3ccccc3)c(C(=O)O)nc12 [Compound 67c, 8-cyano-4-hydroxy-3-phenylethynyl-quinoline-2-carboxylic acid]"
17,109%,"O=C(O)c1cc(O)c2cccc(CCc3ccccc3)c2n1 [Compound 111c, 4-hydroxy-8-phenylethyl-quinoline-2-carboxylic acid]"
18,94%,"O=C(O)c1cc(O)c2cccc(F)c2n1 [Compound 36c, 8-fluoro-4-hydroxy-quinoline-2-carboxylic acid]"
19,117%,"Cl.Nc1cc(N)c2nc(C(=O)O)cc(O)c2c1 [Compound 32d, 6,8-diamino-4-hydroxy-quinoline-2-carboxylic acid hydrochloride]"
20,Potentiation,"O=C(O)c1cc(=O)c2ccccc2[nH]1 [Kynurenic acid, reference compound]"
21,143%,"O=C(O)c1nc2c(O)cccc2c(O)c1Br [Compound 52c, 3-bromo-4,8-dihydroxy-quinoline-2-carboxylic acid]"
22,40%,"Cl.O=C(O)c1cc(O)c2cccc(N3CCOCC3)c2n1 [Compound 104b, 4-hydroxy-8-(morpholin-1-yl)-quinoline-2-carboxylic acid hydrochloride]"

row,% inhibition of XA binding at 10 μM*,SMILES
1,166%,"CN1CCN(c2cc(C(=O)O)nc3c(O)cccc23)CC1.Cl [Compound 110c, 8-hydroxy-4-(4-methyl-piperazin-1-yl)-quinoline-2-carboxylic acid hydrochloride]"
2,97%,"Cl.O=C(O)c1cc(O)c2cc(C3CCCCN3)cc(O)c2n1 (stereo not shown) [Compound 61b, 4,8-dihydroxy-6-piperidin-2-yl-quinoline-2-carboxylic acid hydrochloride]"
3,0%,"CC(C)(C)C(=O)Nc1cccc2c(O)cc(C(=O)O)nc12 [Compound 28b, 8-pivaloylamino-4-hydroxy-quinoline-2-carboxylic acid]"
4,183%,"Cl.O=C(O)c1cc(N2CCNCC2)c2cccc(O)c2n1 [Compound 87c, 8-hydroxy-4-(piperazin-1-yl)-quinoline-2-carboxylic acid hydrochloride]"
5,54.5%,"COc1ccc(-c2cc(O)c3nc(C(=O)O)cc(O)c3c2)cc1 [Compound 19g, 4,8-dihydroxy-6-(4-methoxy-phenyl)-quinoline-2-carboxylic acid]"
6,112%,"Cl.O=C(O)c1cc(O)c2cccc(Nc3ccccn3)c2n1 [Compound 109b, 4-hydroxy-8-(pyridin-2-yl-amino)-quinoline-2-carboxylic acid hydrochloride]"
7,0%,"Nc1cccc2ccc(C(=O)O)nc12 [Compound 4f, 8-amino-quinoline-2-carboxylic acid]"
8,120%,"O=C(O)c1cc(O)c2cccc(OCc3ccccc3)c2n1 [Compound 3y, 4-hydroxy-8-benzyloxy-quinoline-2-carboxylic acid]"
9,103%,"O=C(O)c1cc(O)c2ccc(CCc3ccccc3)c(O)c2n1 [Compound 55b, 4,8-dihydroxy-7-phenethyl-quinoline-2-carboxylic acid]"
10,18%,"N#Cc1cc(CCc2ccccc2)cc2c(O)cc(C(=O)O)nc12 [Compound 65d, 8-cyano-4-hydroxy-6-phenethyl-quinoline-2-carboxylic acid]"
11,94.5%,"O=C(O)c1cc(-c2ccccc2)c2cccc(O)c2n1 [Compound 10b, 8-hydroxy-4-phenyl-quinoline-2-carboxylic acid]"
12,112%,"O=C(O)c1nc2c(O)c(Br)ccc2c(O)c1Br [Compound 56c, 3,7-dibromo-4,8-dihydroxy-quinoline-2-carboxylic acid]"
13,60%,"Nc1cc(O)cc2c(O)cc(C(=O)O)nc12 [Compound 79d, 6-hydroxy-8-amino-4-hydroxy-quinoline-2-carboxylic acid]"
14,38%,"CCCCCCCc1cc(O)c2nc(C(=O)O)cc(O)c2c1 [Compound 22b, 4,8-dihydroxy-6-heptyl-quinoline-2-carboxylic acid]"
15,69%,"Nc1ccc(-c2ccccc2)c2c(O)cc(C(=O)O)nc12 [Compound 73c, 5-phenyl-8-amino-4-hydroxy-quinoline-2-carboxylic acid]"
16,57%,"Cl.NCCCc1cc(C(=O)O)nc2c(N)cccc12 [Compound 95c, 8-amino-4-(3-amino-prop-1-yl)-quinoline-2-carboxylic acid hydrochloride]"
17,77%,"O=C(O)c1nc2c(O)cccc2c(O)c1CN1CCOCC1 [Compound 39b, 3-(N-morpholinomethyl)-4,8-dihydroxy-quinoline-2-carboxylic acid]"
18,94%,"Cl.O=C(O)c1cc(O)c2cccc(-c3nn[nH]n3)c2n1 [Compound 62b, 4-hydroxy-8-(2H-tetrazol-5-yl)-quinoline-2-carboxylic acid hydrochloride]"
19,46%,"N#Cc1cc(Br)cc2c(O)cc(C(=O)O)nc12 [Compound 63c, 6-bromo-8-cyano-4-hydroxy-quinoline-2-carboxylic acid]"
20,77%,"NC(=O)c1cccc2c(O)cc(C(=O)O)nc12 [Compound 37c, 8-carboxamide-4-hydroxy-quinoline-2-carboxylate acid]"
21,97%,"Nc1cc(Cl)cc2c(O)cc(C(=O)O)nc12 [Compound 117d, 6-chloro-8-amino-4-hydroxy-quinoline-2-carboxylic acid]"
22,50%,"O=C(O)c1ccc2c(-c3ccccc3)ccc(O)c2n1 [Compound 19t, 8-hydroxy-5-phenyl-quinoline-2-carboxylic acid]"

# Same assay, conditions: compound at 50 μM; 200 nM [3H]-XA, synaptic membranes; xanthurenic acid set arbitrarily to 100%
row,% inhibition of XA binding at 50 μM*,SMILES
1,77%,"Cc1ccc(S(=O)(=O)Nc2cc(C(=O)O)nc3c(O)cccc23)cc1 [Compound 16a, 8-hydroxy-4-(toluene-4-sulfonylamino)-quinoline-2-carboxylic acid]"

# — patent publication US20060183909A1, “Compositions derived from quinoline and quinoxaline, preparation and use thereof” (priority 2001, published 2006)
